Measurements: US20210255193A1, “LYSINE REACTIVE PROBES AND USES THEREOF” (The Scripps Research Institute, priority 2017, published 2021)
One block for each compound: values may come before it.

Columns and labels:
Test in all cases: competitive isoTOP-ABPP
Type in all cases: binding
[1] = biological target: T1, GLOD4 Glyoxalase domain-containing protein 4 (Homo sapiens, UniProt Q9HC38); settings: 50 uM, in vitro; for isoTOP-ABPP ratio (R) at liganded lysine Q9HC38_K305: sol, 231
T1 construct: endogenous in cells; host or cells: MDA-MB-231 (soluble fraction of lysate)
T1 sequence (Q9HC38 1-313): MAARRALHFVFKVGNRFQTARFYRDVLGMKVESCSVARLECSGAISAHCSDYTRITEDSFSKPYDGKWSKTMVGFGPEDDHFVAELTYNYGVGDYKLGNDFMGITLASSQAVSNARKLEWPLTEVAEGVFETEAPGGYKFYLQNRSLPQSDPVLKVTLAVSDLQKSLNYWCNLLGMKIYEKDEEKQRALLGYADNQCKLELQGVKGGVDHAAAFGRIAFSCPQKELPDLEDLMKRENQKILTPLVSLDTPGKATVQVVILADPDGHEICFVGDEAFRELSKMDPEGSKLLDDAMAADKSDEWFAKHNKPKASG
Outline: (§1)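 Competition format: fragment (50 μM activated ester, 100 μM guanidinylating agent) versus vehicle in lysate, then lysine probe STP-alkyne at 0.1 mM for 1 h. Quantitation by light/heavy TEV-tag MS1 peak areas, reported as R.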

[2] = biological target: T2, GOLGB1 Golgin subfamily B member 1 (Homo sapiens, UniProt Q14789); settings: for isoTOP-ABPP ratio (R) at liganded lysine Q14789_K103: sol, 231; for isoTOP-ABPP ratio, lysine Q14789_K103: 50 uM_231_sol_in vitro
T2 construct: isoTOP-ABPP experiments performed in cell lysates (in vitro); endogenous in cells; host or cells: soluble proteome of human cancer cell lines (MDA-MB-231, Ramos, Jurkat)
Outline: as §1

LMNA Prelamin-A/C = biological target: T3, LMNA Prelamin-A/C (Homo sapiens, UniProt P02545); settings: for isoTOP-ABPP ratio (R) at liganded lysine P02545_K135: sol, 231; for isoTOP-ABPP ratio, lysine P02545_K135: 50 uM_231_sol_in vitro
T3 construct: isoTOP-ABPP experiments performed in cell lysates (in vitro); endogenous in cells; host or cells: MDA-MB-231 soluble lysate
T3 sequence (P02545 1-664): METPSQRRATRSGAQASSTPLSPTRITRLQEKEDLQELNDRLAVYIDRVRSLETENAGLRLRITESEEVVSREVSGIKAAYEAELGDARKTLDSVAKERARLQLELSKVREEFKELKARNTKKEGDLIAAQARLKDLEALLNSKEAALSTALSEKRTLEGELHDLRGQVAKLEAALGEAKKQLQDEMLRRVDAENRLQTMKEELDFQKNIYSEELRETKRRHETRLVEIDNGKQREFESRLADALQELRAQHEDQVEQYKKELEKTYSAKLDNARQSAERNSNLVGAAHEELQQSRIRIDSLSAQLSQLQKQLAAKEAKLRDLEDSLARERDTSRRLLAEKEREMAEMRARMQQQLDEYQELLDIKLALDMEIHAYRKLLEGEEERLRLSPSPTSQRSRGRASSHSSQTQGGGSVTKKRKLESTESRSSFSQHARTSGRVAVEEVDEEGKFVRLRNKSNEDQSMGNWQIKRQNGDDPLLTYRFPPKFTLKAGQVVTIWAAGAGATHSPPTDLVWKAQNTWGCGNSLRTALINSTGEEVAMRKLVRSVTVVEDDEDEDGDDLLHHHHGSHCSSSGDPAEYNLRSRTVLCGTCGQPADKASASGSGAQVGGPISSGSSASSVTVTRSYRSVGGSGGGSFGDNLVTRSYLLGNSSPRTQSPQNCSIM
Outline: as §1

OLA1 Obg-like ATPase 1 = biological target: T4, OLA1 Obg-like ATPase 1 (Homo sapiens, UniProt Q9NTK5); settings: for isoTOP-ABPP ratio (R) at liganded lysine Q9NTK5_K248: sol, 231; for isoTOP-ABPP ratio, lysine Q9NTK5_K248: 50 uM_231_sol_in vitro
T4 construct: endogenous in cells; host or cells: MDA-MB-231 (soluble fraction of lysate)
Outline: as §1

T2 sequence (Q14789 whole entry): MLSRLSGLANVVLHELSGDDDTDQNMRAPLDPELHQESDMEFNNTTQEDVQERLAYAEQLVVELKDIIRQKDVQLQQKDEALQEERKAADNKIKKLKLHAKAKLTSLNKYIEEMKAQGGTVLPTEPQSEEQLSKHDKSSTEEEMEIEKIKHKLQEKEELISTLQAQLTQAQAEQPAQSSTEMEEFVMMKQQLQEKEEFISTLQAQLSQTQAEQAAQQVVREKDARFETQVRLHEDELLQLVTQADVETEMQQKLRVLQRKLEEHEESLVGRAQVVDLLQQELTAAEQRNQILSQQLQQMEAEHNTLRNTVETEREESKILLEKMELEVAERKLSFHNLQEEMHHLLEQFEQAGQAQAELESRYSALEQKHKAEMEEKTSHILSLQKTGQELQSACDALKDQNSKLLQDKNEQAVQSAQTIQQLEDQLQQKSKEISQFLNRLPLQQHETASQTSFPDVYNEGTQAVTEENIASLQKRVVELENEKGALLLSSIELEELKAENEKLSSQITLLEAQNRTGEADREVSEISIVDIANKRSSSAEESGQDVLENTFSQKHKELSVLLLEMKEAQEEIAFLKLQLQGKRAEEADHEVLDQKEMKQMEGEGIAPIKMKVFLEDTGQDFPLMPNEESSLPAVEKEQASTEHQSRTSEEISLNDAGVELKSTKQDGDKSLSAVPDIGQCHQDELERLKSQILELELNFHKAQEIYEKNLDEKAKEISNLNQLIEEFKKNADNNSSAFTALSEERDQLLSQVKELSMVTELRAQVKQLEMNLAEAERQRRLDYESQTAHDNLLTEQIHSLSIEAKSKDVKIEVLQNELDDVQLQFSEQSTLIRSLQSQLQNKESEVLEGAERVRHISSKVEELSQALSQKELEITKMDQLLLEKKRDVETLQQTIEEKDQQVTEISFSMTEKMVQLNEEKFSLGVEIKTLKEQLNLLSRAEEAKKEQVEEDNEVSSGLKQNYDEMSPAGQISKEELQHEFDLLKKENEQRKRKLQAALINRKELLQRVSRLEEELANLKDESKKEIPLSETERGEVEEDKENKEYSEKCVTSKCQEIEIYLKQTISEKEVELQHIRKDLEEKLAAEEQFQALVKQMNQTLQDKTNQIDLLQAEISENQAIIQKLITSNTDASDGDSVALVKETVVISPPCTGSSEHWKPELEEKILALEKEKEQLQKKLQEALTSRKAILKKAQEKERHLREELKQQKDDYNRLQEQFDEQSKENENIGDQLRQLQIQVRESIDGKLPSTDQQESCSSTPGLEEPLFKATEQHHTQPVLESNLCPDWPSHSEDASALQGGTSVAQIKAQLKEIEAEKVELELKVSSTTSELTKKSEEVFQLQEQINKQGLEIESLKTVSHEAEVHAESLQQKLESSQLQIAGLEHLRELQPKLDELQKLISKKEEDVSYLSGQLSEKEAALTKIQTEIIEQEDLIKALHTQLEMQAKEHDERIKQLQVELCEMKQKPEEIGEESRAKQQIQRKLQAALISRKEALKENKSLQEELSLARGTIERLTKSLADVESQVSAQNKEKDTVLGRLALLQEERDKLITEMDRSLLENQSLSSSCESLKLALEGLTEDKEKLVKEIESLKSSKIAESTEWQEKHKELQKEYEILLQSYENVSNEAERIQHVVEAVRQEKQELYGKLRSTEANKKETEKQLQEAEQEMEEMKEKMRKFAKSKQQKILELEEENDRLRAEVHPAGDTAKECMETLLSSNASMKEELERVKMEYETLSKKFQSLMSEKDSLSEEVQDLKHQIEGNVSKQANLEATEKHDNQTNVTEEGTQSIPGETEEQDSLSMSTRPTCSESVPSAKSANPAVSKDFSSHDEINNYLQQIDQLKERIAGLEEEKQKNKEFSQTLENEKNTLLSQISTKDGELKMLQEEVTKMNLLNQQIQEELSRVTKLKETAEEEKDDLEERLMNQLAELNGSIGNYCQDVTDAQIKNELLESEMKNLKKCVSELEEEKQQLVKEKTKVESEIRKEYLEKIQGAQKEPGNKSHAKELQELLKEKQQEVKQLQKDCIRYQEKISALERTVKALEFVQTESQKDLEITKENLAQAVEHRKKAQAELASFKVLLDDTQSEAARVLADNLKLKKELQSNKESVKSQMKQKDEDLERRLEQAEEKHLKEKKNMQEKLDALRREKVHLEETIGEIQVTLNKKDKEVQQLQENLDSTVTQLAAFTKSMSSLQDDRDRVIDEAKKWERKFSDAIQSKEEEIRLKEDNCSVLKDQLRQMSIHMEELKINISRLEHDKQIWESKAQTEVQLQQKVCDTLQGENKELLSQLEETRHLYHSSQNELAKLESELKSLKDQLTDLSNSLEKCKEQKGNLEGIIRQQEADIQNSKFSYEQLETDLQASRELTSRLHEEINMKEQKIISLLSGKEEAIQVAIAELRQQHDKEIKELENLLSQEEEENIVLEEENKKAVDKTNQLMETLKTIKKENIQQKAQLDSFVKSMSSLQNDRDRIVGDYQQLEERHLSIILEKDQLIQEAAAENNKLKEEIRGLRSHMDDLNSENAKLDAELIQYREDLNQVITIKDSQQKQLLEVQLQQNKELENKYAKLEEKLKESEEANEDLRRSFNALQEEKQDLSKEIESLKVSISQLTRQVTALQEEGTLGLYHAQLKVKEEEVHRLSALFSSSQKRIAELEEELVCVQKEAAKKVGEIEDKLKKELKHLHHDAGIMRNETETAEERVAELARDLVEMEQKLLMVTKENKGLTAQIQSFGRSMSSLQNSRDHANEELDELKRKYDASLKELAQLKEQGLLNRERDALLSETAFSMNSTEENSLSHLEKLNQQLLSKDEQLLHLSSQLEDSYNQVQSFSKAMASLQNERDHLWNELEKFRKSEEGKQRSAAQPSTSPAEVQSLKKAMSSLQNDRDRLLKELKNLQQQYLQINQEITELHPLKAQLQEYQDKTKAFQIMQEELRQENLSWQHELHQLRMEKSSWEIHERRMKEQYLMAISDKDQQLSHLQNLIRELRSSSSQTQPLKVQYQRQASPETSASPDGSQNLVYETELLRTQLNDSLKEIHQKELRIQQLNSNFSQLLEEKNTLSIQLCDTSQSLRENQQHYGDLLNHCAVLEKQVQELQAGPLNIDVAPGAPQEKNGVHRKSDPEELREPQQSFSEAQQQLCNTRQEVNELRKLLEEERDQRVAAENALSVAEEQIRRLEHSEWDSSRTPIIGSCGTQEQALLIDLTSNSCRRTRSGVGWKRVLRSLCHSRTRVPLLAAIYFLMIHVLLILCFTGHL

Structure (SMILES): CC(C)(C)OC(=O)NCCCC(=O)Oc1ccc([N+](=O)[O-])cc1[N+](=O)[O-] [fragment 41, 2,4-Dinitrophenyl 4-((tert-butoxycarbonyl)amino)butanoate]
isoTOP-ABPP ratio (R) at liganded lysine Q9HC38_K305 [1]: 20.0
isoTOP-ABPP ratio (R) at liganded lysine Q14789_K103 ([2]; 50 uM, in vitro): 1.1
isoTOP-ABPP ratio (R) at liganded lysine P02545_K135 (LMNA Prelamin-A/C; 50 uM, in vitro): 1.1
isoTOP-ABPP ratio (R) at liganded lysine Q9NTK5_K248 (OLA1 Obg-like ATPase 1; 50 uM, in vitro): 1.0

Structure (SMILES): O=C(Oc1ccc([N+](=O)[O-])cc1[N+](=O)[O-])c1ccc(-c2ccccc2)cc1 [fragment 37, 2,4-Dinitrophenyl [1,1′-biphenyl]-4-carboxylate]
isoTOP-ABPP ratio (R) at liganded lysine Q9HC38_K305 [1]: 0.6
isoTOP-ABPP ratio (R) at liganded lysine Q14789_K103 ([2]; 50 uM, in vitro): 0.9
isoTOP-ABPP ratio (R) at liganded lysine P02545_K135 (LMNA Prelamin-A/C; 50 uM, in vitro): 0.9
isoTOP-ABPP ratio (R) at liganded lysine Q9NTK5_K248 (OLA1 Obg-like ATPase 1; 50 uM, in vitro): 0.9

Structure (SMILES): O=C(ON1C(=O)CCC1=O)c1cc(C(F)(F)F)cc(C(F)(F)F)c1 [fragment 46, 3,5-Bis(trifluoromethyl)benzoic acid NHS ester]
isoTOP-ABPP ratio, lysine Q14789_K103 [2]: 1.2
isoTOP-ABPP ratio, lysine P02545_K135 (LMNA Prelamin-A/C): 0.7
isoTOP-ABPP ratio, lysine Q9NTK5_K248 (OLA1 Obg-like ATPase 1): 1.2

Structure (SMILES): Cn1cc(CC(=O)Oc2ccc([N+](=O)[O-])cc2[N+](=O)[O-])c2ccccc21 [fragment 32, 2,4-Dinitrophenyl 2-(1-methyl-1H-indol-3-yl)acetate]
isoTOP-ABPP reactivity ratio at lysine Q14789_K103 ([2]; 50 uM, 231 sol, in vitro): 7.0
isoTOP-ABPP reactivity ratio at lysine P02545_K135 (LMNA Prelamin-A/C; 50 uM, 231 sol, in vitro): 20.0
isoTOP-ABPP reactivity ratio at lysine Q9NTK5_K248 (OLA1 Obg-like ATPase 1; 50 uM, 231 sol, in vitro): 1.0

Structure (SMILES): O=C(CCc1coc2cc(F)ccc2c1=O)Oc1ccc([N+](=O)[O-])cc1[N+](=O)[O-] [fragment 36, 2,4-Dinitrophenyl 3-(7-fluoro-4-oxo-4H-chromen-3-yl)propanoate]
isoTOP-ABPP ratio (R) at liganded lysine Q14789_K103 ([2]; 50 uM, in vitro): 0.9
isoTOP-ABPP ratio (R) at liganded lysine P02545_K135 (LMNA Prelamin-A/C; 50 uM, in vitro): 0.8
isoTOP-ABPP ratio (R) at liganded lysine Q9NTK5_K248 (OLA1 Obg-like ATPase 1; 50 uM, in vitro): 0.8

The remaining lines, values ahead:

R value (DMSO/fragment) for probe 1 labeling ([1]; Q9HC38_K305, 231 sol): 0.7
R value (DMSO/fragment) for probe 1 labeling ([2]; Q14789_K103, 50 uM, 231 sol, in vitro): 1.0
R value (DMSO/fragment) for probe 1 labeling (LMNA Prelamin-A/C; P02545_K135, 50 uM, 231 sol, in vitro): 1.0
R value (DMSO/fragment) for probe 1 labeling (OLA1 Obg-like ATPase 1; Q9NTK5_K248, 50 uM, 231 sol, in vitro): 1.0
Structure (SMILES): Cn1cc(CC(=O)Oc2c(F)c(F)c(F)c(F)c2F)c2ccccc21 [fragment 22, Pentafluorophenyl 2-(1-methyl-1H-indol-3-yl)acetate]

isoTOP-ABPP reactivity ratio at lysine Q9HC38_K305 ([1]; 231 sol): 0.5
isoTOP-ABPP reactivity ratio at lysine Q14789_K103 ([2]; 50 uM, 231 sol, in vitro): 1.3
isoTOP-ABPP reactivity ratio at lysine Q9NTK5_K248 (OLA1 Obg-like ATPase 1; 50 uM, 231 sol, in vitro): 1.1
Structure (SMILES): O=C(CN1C(=O)c2ccccc2C1=O)Oc1c(F)c(F)c(F)c(F)c1F [fragment 27, Pentafluorophenyl 2-(1,3-dioxoisoindolin-2-yl)acetate]

isoTOP-ABPP reactivity ratio at lysine Q9HC38_K305 ([1]; 231 sol): 1.5
isoTOP-ABPP reactivity ratio at lysine Q14789_K103 ([2]; 50 uM, 231 sol, in vitro): 1.0
isoTOP-ABPP reactivity ratio at lysine Q9NTK5_K248 (OLA1 Obg-like ATPase 1; 50 uM, 231 sol, in vitro): 1.1
Structure (SMILES): O=C(Oc1c(F)c(F)c(F)c(F)c1F)C1CCN(C(=O)OCc2ccccc2)CC1 [fragment 24, 1-Benzyl 4-(pentafluorophenyl) piperidine-1,4-dicarboxylate]

isoTOP-ABPP reactivity ratio at lysine Q9HC38_K305 ([1]; 231 sol): 0.8
isoTOP-ABPP reactivity ratio at lysine Q14789_K103 ([2]; 50 uM, 231 sol, in vitro): 1.1
isoTOP-ABPP reactivity ratio at lysine Q9NTK5_K248 (OLA1 Obg-like ATPase 1; 50 uM, 231 sol, in vitro): 1.0
Structure (SMILES): O=C(CCc1coc2cc(F)ccc2c1=O)Oc1c(F)c(F)c(F)c(F)c1F [fragment 26, Pentafluorophenyl 3-(7-fluoro-4-oxo-4H-chromen-3-yl)propanoate]

isoTOP-ABPP ratio, lysine Q14789_K103 [2]: 1.0
isoTOP-ABPP ratio, lysine P02545_K135 (LMNA Prelamin-A/C): 1.2
isoTOP-ABPP ratio, lysine Q9NTK5_K248 (OLA1 Obg-like ATPase 1): 1.2
Structure (SMILES): O=C(Oc1c(F)c(F)c(C(F)(F)F)c(F)c1F)c1cc(C(F)(F)F)cc(C(F)(F)F)c1 [fragment 47, 2,3,5,6-Tetrafluoro-4-(trifluoromethyl)phenyl 3,5-bis(trifluoromethyl)benzoate]

isoTOP-ABPP reactivity ratio at lysine Q9HC38_K305 ([1]; 231 sol): 1.0
isoTOP-ABPP reactivity ratio at lysine Q14789_K103 ([2]; 50 uM, 231 sol, in vitro): 0.9
isoTOP-ABPP reactivity ratio at lysine Q9NTK5_K248 (OLA1 Obg-like ATPase 1; 50 uM, 231 sol, in vitro): 1.0
Structure (SMILES): CCn1cc(C(=O)Oc2c(F)c(F)c(F)c(F)c2F)c(=O)c2ccc(C)nc21 [fragment 28, Pentafluorophenyl 1-ethyl-7-methyl-4-oxo-1,4-dihydro-1,8-naphthyridine-3-carboxylate]

isoTOP-ABPP ratio, lysine Q14789_K103 [2]: 1.1
isoTOP-ABPP ratio, lysine P02545_K135 (LMNA Prelamin-A/C): 1.0
isoTOP-ABPP ratio, lysine Q9NTK5_K248 (OLA1 Obg-like ATPase 1): 1.0
Structure (SMILES): O=C(Oc1c(F)c(F)cc(F)c1F)c1cc(C(F)(F)F)cc(C(F)(F)F)c1 [fragment 48, 2,3,5,6-Tetrafluorophenyl 3,5-bis(trifluoromethyl)benzoate]
